Data: patent US10316035B2, “Triazolopyridine inhibitors of myeloperoxidase” (BRISTOL-MYERS SQUIBB COMPANY, priority 2015, dated 2019)

The compounds below were run against T1, myeloperoxidase (MPO) (Homo sapiens, UniProt P05164) (assay: MPO peroxidation assay (Amplex Red assay)). Conditions: MPO peroxidation, potency range class; read-out: Amplex Red IC50.
T1 sequence (P05164 49-745): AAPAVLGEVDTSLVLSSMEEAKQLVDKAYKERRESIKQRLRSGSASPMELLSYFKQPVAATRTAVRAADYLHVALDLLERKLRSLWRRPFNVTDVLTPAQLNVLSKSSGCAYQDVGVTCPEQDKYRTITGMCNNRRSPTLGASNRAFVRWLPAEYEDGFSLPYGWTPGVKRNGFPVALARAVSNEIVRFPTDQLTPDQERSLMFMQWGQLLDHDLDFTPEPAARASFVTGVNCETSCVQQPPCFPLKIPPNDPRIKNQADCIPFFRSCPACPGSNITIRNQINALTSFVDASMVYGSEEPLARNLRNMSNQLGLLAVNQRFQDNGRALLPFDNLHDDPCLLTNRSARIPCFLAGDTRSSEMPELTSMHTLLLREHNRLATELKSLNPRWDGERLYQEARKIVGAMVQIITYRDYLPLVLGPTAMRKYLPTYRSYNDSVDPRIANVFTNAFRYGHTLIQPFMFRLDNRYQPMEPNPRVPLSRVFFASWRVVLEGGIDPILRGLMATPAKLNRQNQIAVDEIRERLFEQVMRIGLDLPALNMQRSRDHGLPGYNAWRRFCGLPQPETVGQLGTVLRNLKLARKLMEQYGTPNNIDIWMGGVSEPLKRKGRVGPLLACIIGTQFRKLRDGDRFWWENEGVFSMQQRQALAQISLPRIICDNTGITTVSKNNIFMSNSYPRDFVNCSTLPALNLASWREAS
Assay type: biochemical
Method in brief: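 MPO (200 pM) with 40 nM H2O2 was preincubated 10 min at room temperature with inhibitor in 100 mM KPi pH 7.4. A mix of Amplex Red (200 μM) and H2O2 (10 mM) was then added and resorufin fluorescence read kinetically for 15 min. Slopes over 180–540 s gave % inhibition and IC50 via a four-parameter Hill fit.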
With `CC(NC(=O)c1ccc(F)c(COc2cc(N)nc3[nH]nnc23)c1)c1ccccc1` (stereo not drawn) [Example 157, 3-((5-amino-3H-[1,2,3]triazolo[4,5-b]pyridin-7-yloxy)methyl)-4-fluoro-N-(1-phenylethyl)benzamide] the IC50 was 1 to 100 nM. For `COCCNC(=O)c1ccc(F)c(COc2cc(N)nc3[nH]nnc23)c1` [Example 158, 3-((5-amino-3H-[1,2,3]triazolo[4,5-b]pyridin-7-yloxy)methyl)-4-fluoro-N-(2-methoxyethyl)benzamide], the IC50 was 1 to 100 nM. In the case of `CN(C(=O)c1ccc(F)c(COc2cc(N)nc3[nH]nnc23)c1)c1ccccc1` [Example 159, 3-((5-amino-3H-[1,2,3]triazolo[4,5-b]pyridin-7-yloxy)methyl)-4-fluoro-N-methyl-N-phenylbenzamide], the IC50 is reported as 1 to 100 nM. Compound `Nc1cc(OCc2cc(C(=O)NC3(CO)CCCC3)ccc2F)c2nn[nH]c2n1` [Example 160, 3-((5-amino-3H-[1,2,3]triazolo[4,5-b]pyridin-7-yloxy)methyl)-4-fluoro-N-(1-(hydroxymethyl)cyclopentyl) benzamide] has an IC50 of 101 to 999 nM. `NC(=O)CNC(=O)c1ccc(F)c(COc2cc(N)nc3[nH]nnc23)c1` [Example 161, N-(2-amino-2-oxoethyl)-3-((5-amino-3H-[1,2,3]triazolo[4,5-b]pyridin-7-yloxy)methyl)-4-fluorobenzamide] gave an IC50 of 1 to 100 nM. Work on `Nc1cc(OCc2cc(C(=O)NCC3CC3)ccc2F)c2nn[nH]c2n1` [Example 162, 3-((5-amino-3H-[1,2,3]triazolo[4,5-b]pyridin-7-yloxy)methyl)-N-(cyclopropylmethyl)-4-fluorobenzamide] yielded an IC50 of 1 to 100 nM. For `Nc1cc(OCc2cc(C(=O)NC3CCC(O)CC3)ccc2F)c2nn[nH]c2n1` (stereo not drawn) [Example 163], the IC50 was 101 to 999 nM. With `CN1CCC(N(C)C(=O)c2ccc(F)c(COc3cc(N)nc4[nH]nnc34)c2)C1` (stereo not drawn) [Example 164] the IC50 was 101 to 999 nM. With `Nc1cc(OCc2cc(C(=O)N3CC[C@@H](O)C3)ccc2F)c2nn[nH]c2n1` [Example 166, (R)-(3-((5-amino-3H-[1,2,3]triazolo [4,5-b]pyridin-7-yloxy)methyl)-4-fluorophenyl)(3-hydroxypyrrolidin-1-yl)methanone] the IC50 was 101 to 999 nM. In the case of `Nc1cc(OCc2cc(C(=O)N3CCNC(=O)C3)ccc2F)c2nn[nH]c2n1` [Example 169, 4-(3-((5-amino-3H-[1,2,3]triazolo [4,5-b]pyridin-7-yloxy)methyl)-4-fluorobenzoyl)piperazin-2-one], the IC50 is reported as 101 to 999 nM. Compound `NC(=O)CCNC(=O)c1ccc(F)c(COc2cc(N)nc3[nH]nnc23)c1` [Example 170, N-(3-amino-3-oxopropyl)-3-((5-amino-3H-[1,2,3]triazolo[4,5-b]pyridin-7-yloxy)methyl)-4-fluorobenzamide] has an IC50 of 1 to 100 nM. `COC(=O)c1ccc(Cl)c(COc2cc(N)nc3[nH]nnc23)c1` [Example 171, Methyl 3-((5-amino-3H-[1,2,3]triazolo[4,5-b]pyridin-7-yloxy)methyl)-4-chlorobenzoate] showed an IC50 of 1 to 100 nM. In the case of `Nc1cc(OCc2cc(C(=O)NCc3ccccc3)ccc2Cl)c2nn[nH]c2n1` [Example 173, 3-((5-amino-3H-[1,2,3]triazolo [4,5-b]pyridin-7-yloxy)methyl)-N-benzyl-4-chlorobenzamide], the IC50 is reported as 1 to 100 nM. `CN(C(=O)c1ccc(Cl)c(COc2cc(N)nc3[nH]nnc23)c1)c1ccccc1` [Example 175, 3-((5-amino-3H-[1,2,3]triazolo [4,5-b]pyridin-7-yloxy)methyl)-4-chloro-N-methyl-N-phenylbenzamide] gave an IC50 of 1 to 100 nM. In the case of `Nc1cc(OCc2cc(C(=O)N3CCC(O)C3)ccc2Cl)c2nn[nH]c2n1` (stereo not drawn) [Example 176, (3-((5-amino-3H-[1,2,3]triazolo [4,5-b]pyridin-7-yloxy)methyl)-4-chlorophenyl)(3-hydroxypyrrolidin-1-yl)methanone], the IC50 is reported as 101 to 999 nM. In the case of `Nc1cc(OCc2cc(C(=O)N3CCC[C@@H]3CO)ccc2Cl)c2nn[nH]c2n1` [Example 178, (R)-(3-((5-amino-3H-[1,2,3]triazolo[4,5-b]pyridin-7-yloxy)methyl)-4-chlorophenyl)(2-(hydroxymethyl)pyrrolidin-1-yl)methanone], the IC50 is reported as 101 to 999 nM. `Nc1cc(OCc2cc(C(=O)N3CCC[C@H]3CO)ccc2Cl)c2nn[nH]c2n1` [Example 179, (S)-(3-((5-amino-3H-[1,2,3]triazolo[4,5-b]pyridin-7-yloxy)methyl)-4-chlorophenyl)(2-(hydroxymethyl)pyrrolidin-1-yl)methanone] gave an IC50 of 101 to 999 nM. `Nc1cc(OCc2cc(C(=O)N3CCC3)ccc2Cl)c2nn[nH]c2n1` [Example 182, (3-((5-amino-3H-[1,2,3]triazolo [4,5-b]pyridin-7-yloxy)methyl)-4-chlorophenyl)(azetidin-1-yl)methanone] gave an IC50 of 101 to 999 nM. Compound `Nc1cc(OCc2cc(C(=O)N(CCO)Cc3ccccc3)ccc2Cl)c2nn[nH]c2n1` [Example 183, 3-((5-amino-3H-[1,2,3]triazolo [4,5-b]pyridin-7-yloxy)methyl)-N-benzyl-4-chloro-N-(2-hydroxyethyl)benzamide] has an IC50 of 101 to 999 nM. Work on `CCN(CCO)C(=O)c1ccc(Cl)c(COc2cc(N)nc3[nH]nnc23)c1` [Example 184, 3-((5-amino-3H-[1,2,3]triazolo [4,5-b]pyridin-7-yloxy)methyl)-4-chloro-N-ethyl-N-(2-hydroxyethyl) benzamide] yielded an IC50 of 101 to 999 nM. In the case of `CN(C)C(=O)c1ccc(Cl)c(COc2cc(N)nc3[nH]nnc23)c1` [Example 185, 3-((5-amino-3H-[1,2,3]triazolo [4,5-b]pyridin-7-yloxy)methyl)-4-chloro-N,N-dimethylbenzamide], the IC50 is reported as 101 to 999 nM. `CNC(=O)CNC(=O)c1ccc(Cl)c(COc2cc(N)nc3[nH]nnc23)c1` [Example 187, 3-((5-amino-3H-[1,2,3]triazolo [4,5-b]pyridin-7-yloxy)methyl)-4-chloro-N-(2-(methylamino)-2-oxoethyl)benzamide] gave an IC50 of 101 to 999 nM. Work on `Nc1cc(OCc2cc(C(=O)NC3CC3)ccc2Cl)c2nn[nH]c2n1` [Example 188, 3-((5-amino-3H-[1,2,3]triazolo [4,5-b]pyridin-7-yloxy)methyl)-4-chloro-N-cyclopropylbenzamide] yielded an IC50 of 1 to 100 nM. In the case of `CN(CC(N)=O)C(=O)c1ccc(Cl)c(COc2cc(N)nc3[nH]nnc23)c1` [Example 189, N-(2-amino-2-oxoethyl)-3-((5-amino-3H-[1,2,3]triazolo[4,5-b]pyridin-7-yloxy)methyl)-4-chloro-N-methylbenzamide], the IC50 is reported as 101 to 999 nM. `Nc1cc(OCc2cc(C(=O)NCC(F)(F)F)ccc2Cl)c2nn[nH]c2n1` [Example 190, 3-((5-amino-3H-[1,2,3]triazolo [4,5-b]pyridin-7-yloxy)methyl)-4-chloro-N-(2,2,2-trifluoroethyl) benzamide] was tested, and the IC50 was 1 to 100 nM. For `CC(O)CNC(=O)c1ccc(Cl)c(COc2cc(N)nc3[nH]nnc23)c1` (stereo not drawn) [Example 191, 3-((5-amino-3H-[1,2,3]triazolo [4,5-b]pyridin-7-yloxy)methyl)-4-chloro-N-(2-hydroxypropyl) benzamide], the IC50 was 1 to 100 nM. Compound `Nc1cc(OCc2cc(C(=O)NCc3ccc[nH]c3=O)ccc2Cl)c2nn[nH]c2n1` [Example 192, 3-((5-amino-3H-[1,2,3]triazolo [4,5-b]pyridin-7-yloxy)methyl)-4-chloro-N-((2-oxo-1,2-dihydropyridin-3-yl)methyl) benzamide] has an IC50 of 1 to 100 nM. `Nc1cc(OCc2cc(C(=O)NC3CCS(=O)(=O)C3)ccc2Cl)c2nn[nH]c2n1` (stereo not drawn) [Example 193, 3-((5-amino-3H-[1,2,3]triazolo [4,5-b]pyridin-7-yloxy)methyl)-4-chloro-N-(1,1-dioxidotetrahydrothien-3-yl)benzamide] showed an IC50 of 101 to 999 nM. With `COC(=O)c1ccc(COc2cc(N)nc3[nH]nnc23)c(Cl)c1` [Example 194, Methyl 4-((5-amino-3H-[1,2,3]triazolo[4,5-b]pyridin-7-yloxy)methyl)-3-chlorobenzoate] the IC50 was 1 to 100 nM. For `Nc1cc(OCc2ccc(C(=O)NCc3ccccc3)cc2Cl)c2nn[nH]c2n1` [Example 196, 4-((5-amino-3H-[1,2,3]triazolo[4,5-b]pyridin-7-yloxy)methyl)-N-benzyl-3-chlorobenzamide], the IC50 was 1 to 100 nM. For `Nc1cc(OCc2ccc(C(=O)NC3CC3)cc2Cl)c2nn[nH]c2n1` [Example 197, 4-((5-amino-3H-[1,2,3]triazolo[4,5-b]pyridin-7-yloxy)methyl)-3-chloro-N-cyclopropylbenzamide], the IC50 was 101 to 999 nM. In the case of `Nc1cc(OCc2ccc(C(=O)NCC3CCCCC3)cc2Cl)c2nn[nH]c2n1` [Example 198, 4-((5-amino-3H-[1,2,3]triazolo[4,5-b]pyridin-7-yloxy)methyl)-3-chloro-N-(cyclohexylmethyl)benzamide], the IC50 is reported as 101 to 999 nM. `Nc1cc(OCc2ccc(C(=O)N3CCC[C@H]3CO)cc2Cl)c2nn[nH]c2n1` [Example 199, (S)-(4-((5-amino-3H-[1,2,3]triazolo [4,5-b]pyridin-7-yloxy)methyl)-3-chlorophenyl)(2-(hydroxymethyl)pyrrolidin-1-yl)methanone] gave an IC50 of 101 to 999 nM.
